Measured values taken from patent US7569593B2, “Compounds and compositions as protein kinase inhibitors” (IRM LLC, priority 2003, dated 2009).

How the values were obtained:
Type in all cases: biochemical
b-Raf = b-Raf (Homo sapiens, UniProt P15056); experiment: b-Raf kinase inhibition assay (IκBα substrate, 384-well plate); settings: read-out: IC50 against b-Raf
Protocol: Compounds of the invention are tested for their ability to inhibit the activity of b-Raf. The assay is carried out in 384-well MaxiSorp plates (NUNC) with black walls and clear bottom. The substrate, IκBα is diluted in DPBS (1:750) and 15 μl is added to each well. The plates are incubated at 4° C. overnight and washed 3 times with TBST (25 mM Tris, pH 8.0, 150 mM NaCl and 0.05% Tween-20) using the EMBLA plate washer. Plates are blocked by Superblock (15 μl/well) for 3 hours at room temperature, washed 3 times with TBST and pat-dried. Assay buffer containing 20 μM ATP (10 μl) is added to each well followed by 100 nl or 500 nl of compound. B-Raf is diluted in the assay buffer (1 μl into 25 μl) and 10 μl of diluted b-Raf is added to each well (0.4 μg/well). The plates are incubated at room temperature for 2.5 hours. The kinase reaction is stopped by washing the plates 6 times with TBST. Phosph-IκBα (Ser32/36) antibody is diluted in Superblock (1:10,000) and 15 μl is added to each well. The plates are incubated at 4° C. overnight and washed 6 times with TBST. AP-conjugated goat-anti-mouse IgG is diluted in Superblock (1:1,500) and 15 μl is added to each well. Plates are incubated at room temperature for 1 hour and washed 6 times with TBST. […] Plates are read on Acquest or Analyst GT using a Fluorescence Intensity Nanxin BBT anion (505 dichroic mirror).

Abl = target: T1, Abl (Homo sapiens, UniProt P00519); experiment: Upstate KinaseProfiler radio-enzymatic filter binding assay; settings: at a concentration of 10 μM; 100% means complete inhibition; read-out: percentage inhibition of Abl
T1 construct: purchased Upstate (KinaseProfiler panel)
T1 sequence (P00519 whole entry, species assumed): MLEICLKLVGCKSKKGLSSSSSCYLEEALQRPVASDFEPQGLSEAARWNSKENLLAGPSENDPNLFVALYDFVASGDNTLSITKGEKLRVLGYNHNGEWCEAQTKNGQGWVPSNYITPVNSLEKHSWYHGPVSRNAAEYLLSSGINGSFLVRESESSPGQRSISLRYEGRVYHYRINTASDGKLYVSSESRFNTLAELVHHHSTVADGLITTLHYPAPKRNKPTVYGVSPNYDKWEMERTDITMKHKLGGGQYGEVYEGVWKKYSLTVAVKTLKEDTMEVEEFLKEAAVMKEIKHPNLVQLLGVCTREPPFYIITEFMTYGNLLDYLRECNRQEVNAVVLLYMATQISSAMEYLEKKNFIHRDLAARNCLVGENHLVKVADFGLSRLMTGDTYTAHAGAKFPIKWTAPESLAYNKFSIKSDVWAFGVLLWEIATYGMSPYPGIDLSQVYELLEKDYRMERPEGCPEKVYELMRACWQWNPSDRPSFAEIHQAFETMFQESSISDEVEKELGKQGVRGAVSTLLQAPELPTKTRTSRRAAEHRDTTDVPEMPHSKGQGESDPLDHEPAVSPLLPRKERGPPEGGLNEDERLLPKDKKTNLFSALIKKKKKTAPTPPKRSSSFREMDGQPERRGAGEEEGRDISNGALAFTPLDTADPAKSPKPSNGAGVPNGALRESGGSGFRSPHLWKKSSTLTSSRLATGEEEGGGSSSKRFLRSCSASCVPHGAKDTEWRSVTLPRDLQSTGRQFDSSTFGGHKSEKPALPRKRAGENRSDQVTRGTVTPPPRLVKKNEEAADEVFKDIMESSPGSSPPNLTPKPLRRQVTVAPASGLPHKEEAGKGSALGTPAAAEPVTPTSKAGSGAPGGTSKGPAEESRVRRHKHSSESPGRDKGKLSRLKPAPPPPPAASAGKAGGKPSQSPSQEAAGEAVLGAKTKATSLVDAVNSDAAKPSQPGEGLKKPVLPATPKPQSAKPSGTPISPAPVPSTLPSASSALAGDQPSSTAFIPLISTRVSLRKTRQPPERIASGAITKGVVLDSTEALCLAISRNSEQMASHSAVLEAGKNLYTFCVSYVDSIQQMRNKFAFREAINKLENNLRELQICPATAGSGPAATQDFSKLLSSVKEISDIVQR
Protocol: (§1) Compounds of the invention are assessed for their ability to inhibit individual members of a panel of kinases (a partial, non-limiting list of kinases includes: Abl, BCR-Abl, EGF-R, c-erbB2 kinase (HER-2), PDGF-R, lck, SAPK2α, p38, TGFβ, KDR, c-Kit, b-RAF, c-RAF, FLTI and FLT4). The compounds are tested in duplicates at a final concentration of 10 μM following this generic protocol. Note that the kinase buffer composition and the substrates vary for the different kinases included in the “Upstate KinaseProfiler™” panel. Kinase buffer (2.5 μL, 10x—containing MnCl2 when required), active kinase (0.001-0.01 Units; 2.5 μL), specific or Poly(Glu4-Tyr) peptide (5-500 μM or .01mg/ml) in kinase buffer and kinase buffer ([…]; 5 μL) are mixed in an eppendorf on ice. A Mg/ATP mix (10 μL; 67.5 (or 33.75) mM MgCl2, 450 (or 225) μM ATP and 1 μCi/μl [γ-^32P]-ATP (3000 Ci/mmol)) is added and the reaction is incubated at about 30° C. for about 10 minutes. The reaction mixture is spotted (20 μL) onto a 2 cm×2 cm P81 (phosphocellulose, for positively charged peptide substrates) or Whatman No. 1 (for Poly (Glu4-Tyr) peptide substrate) paper square. The assay squares are washed 4 times, for 5 minutes each, with 0.75% phosphoric acid and washed once with acetone for 5 minutes. The assay squares are transferred to a scintillation vial, 5 ml scintillation cocktail are added and ^32P incorporation (cpm) to the peptide substrate is quantified with a Beckman scintillation counter. Percentage inhibition is calculated for each reaction.

SAPK2α = target: T2, SAPK2α (Homo sapiens, UniProt Q16539); experiment: as above; settings: at a concentration of 10 μM; 100% means complete inhibition; read-out: percentage inhibition of SAPK2α
T2 construct: purchased Upstate (KinaseProfiler panel)
T2 sequence (Q16539 whole entry): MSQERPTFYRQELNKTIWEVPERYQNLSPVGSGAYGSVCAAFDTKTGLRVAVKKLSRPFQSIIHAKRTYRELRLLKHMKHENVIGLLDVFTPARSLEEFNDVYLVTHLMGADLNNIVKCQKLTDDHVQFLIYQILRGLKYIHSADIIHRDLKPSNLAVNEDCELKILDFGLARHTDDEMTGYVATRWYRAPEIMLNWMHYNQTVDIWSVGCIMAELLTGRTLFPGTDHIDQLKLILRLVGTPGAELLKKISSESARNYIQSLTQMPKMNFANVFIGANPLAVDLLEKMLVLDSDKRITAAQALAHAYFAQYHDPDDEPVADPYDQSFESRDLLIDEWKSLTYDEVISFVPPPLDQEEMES
Protocol: as §1

c-RAF = target: T3, c-RAF (Homo sapiens, UniProt P04049); experiment: as above; settings: at a concentration of 10 μM; 100% means complete inhibition; read-out: percentage inhibition of c-RAF
T3 construct: purchased Upstate (KinaseProfiler panel)
T3 sequence (P04049 whole entry): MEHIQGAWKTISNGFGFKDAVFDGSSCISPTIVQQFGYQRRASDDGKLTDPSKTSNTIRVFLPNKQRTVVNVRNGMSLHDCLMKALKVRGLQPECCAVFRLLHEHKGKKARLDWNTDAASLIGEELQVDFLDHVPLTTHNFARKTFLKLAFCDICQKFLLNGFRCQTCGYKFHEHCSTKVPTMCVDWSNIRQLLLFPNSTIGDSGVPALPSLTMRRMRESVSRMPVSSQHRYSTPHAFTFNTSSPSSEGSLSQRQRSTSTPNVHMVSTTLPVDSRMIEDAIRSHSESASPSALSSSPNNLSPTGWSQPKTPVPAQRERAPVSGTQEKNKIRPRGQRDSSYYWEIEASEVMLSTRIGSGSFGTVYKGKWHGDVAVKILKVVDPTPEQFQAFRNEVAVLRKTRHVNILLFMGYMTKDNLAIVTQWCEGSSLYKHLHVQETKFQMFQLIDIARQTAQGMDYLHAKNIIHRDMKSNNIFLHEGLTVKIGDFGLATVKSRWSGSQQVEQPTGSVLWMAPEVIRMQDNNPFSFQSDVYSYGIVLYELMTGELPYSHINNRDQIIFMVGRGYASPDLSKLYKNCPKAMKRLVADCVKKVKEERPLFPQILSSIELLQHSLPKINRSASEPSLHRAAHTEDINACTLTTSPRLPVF
Protocol: as §1

Lck = target: T4, Lck (Homo sapiens, UniProt P06239); experiment: as above; settings: at a concentration of 10 μM; 100% means complete inhibition; read-out: percentage inhibition of Lck
T4 construct: purchased Upstate (KinaseProfiler panel)
T4 sequence (P06239 whole entry, species assumed): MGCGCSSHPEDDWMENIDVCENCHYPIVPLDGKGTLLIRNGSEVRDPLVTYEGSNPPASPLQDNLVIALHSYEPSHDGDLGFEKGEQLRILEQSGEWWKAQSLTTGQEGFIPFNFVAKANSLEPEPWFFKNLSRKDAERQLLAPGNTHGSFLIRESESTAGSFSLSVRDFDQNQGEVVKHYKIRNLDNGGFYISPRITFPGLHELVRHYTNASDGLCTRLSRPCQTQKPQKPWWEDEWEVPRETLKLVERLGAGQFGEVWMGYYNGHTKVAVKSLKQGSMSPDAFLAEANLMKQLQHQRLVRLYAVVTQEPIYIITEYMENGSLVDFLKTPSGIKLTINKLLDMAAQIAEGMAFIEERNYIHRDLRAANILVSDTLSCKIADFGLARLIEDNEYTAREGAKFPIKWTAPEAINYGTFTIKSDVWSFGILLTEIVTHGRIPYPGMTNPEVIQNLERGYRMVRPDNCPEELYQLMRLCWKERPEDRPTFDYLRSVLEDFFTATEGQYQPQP
Protocol: as §1

b-Raf, sequence (P15056 whole entry): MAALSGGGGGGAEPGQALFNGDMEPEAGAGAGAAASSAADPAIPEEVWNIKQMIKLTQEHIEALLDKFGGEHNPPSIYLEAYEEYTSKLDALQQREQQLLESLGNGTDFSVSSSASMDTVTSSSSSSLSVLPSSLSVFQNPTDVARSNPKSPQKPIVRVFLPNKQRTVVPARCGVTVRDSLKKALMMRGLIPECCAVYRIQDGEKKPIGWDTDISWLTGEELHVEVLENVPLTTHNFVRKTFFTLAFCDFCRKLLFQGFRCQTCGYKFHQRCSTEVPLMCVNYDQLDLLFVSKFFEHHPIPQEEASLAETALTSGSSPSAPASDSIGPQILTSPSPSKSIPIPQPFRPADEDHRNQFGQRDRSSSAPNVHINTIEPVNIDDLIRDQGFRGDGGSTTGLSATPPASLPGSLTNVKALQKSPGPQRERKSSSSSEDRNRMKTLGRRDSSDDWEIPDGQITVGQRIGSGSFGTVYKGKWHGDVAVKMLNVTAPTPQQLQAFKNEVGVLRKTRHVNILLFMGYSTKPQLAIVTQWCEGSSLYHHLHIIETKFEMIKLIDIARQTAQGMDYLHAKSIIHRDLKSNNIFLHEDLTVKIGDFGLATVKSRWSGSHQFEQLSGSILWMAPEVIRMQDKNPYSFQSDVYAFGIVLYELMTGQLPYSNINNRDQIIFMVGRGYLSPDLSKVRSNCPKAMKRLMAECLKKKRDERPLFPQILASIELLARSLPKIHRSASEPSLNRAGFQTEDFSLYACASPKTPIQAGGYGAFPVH

inhibition at 10 µM (Abl) | inhibition at 10 µM (SAPK2α) | inhibition at 10 µM (c-RAF) | inhibition at 10 µM (Lck) | Structure (SMILES) | IC50 (b-Raf)
98% | 74% | 98% | 61% | Oc1ccc2cc(-c3nc(-c4ccccc4)[nH]c3-c3ccncc3)ccc2c1 [Compound 11, 6-(2-phenyl-5-pyridin-4-yl-1H-imidazol-4-yl)-naphthalen-2-ol] | 300 nM
 |  |  |  | CN(C)c1ccc(NC(=O)Oc2ccc3cc(-c4nc(-c5ccccc5)[nH]c4-c4ccncc4)ccc3c2)cc1 [Compound 15, (4-dimethylamino-phenyl)-carbamic acid 6-(2-phenyl-5-pyridin-4-yl-1H-imidazol-4-yl)-naphthalen-2-yl ester] | 879 nM
